Experimental data taken from patent publication US11993587B2, “Substituted pyrazolo-pyrazines and their use as GluN2B receptor modulators” (JANSSEN PHARMACEUTICA NV, priority 2019, dated 2024).

Key:
[1] = Liver microsomal stability (extraction ratio); assay type: in vitro ADME; conditions: test compound 1 μM, 0.5 mg/mL liver microsomes, NADPH, 37° C.; species not stated (method: mouse, rat, and human)
Method: Protocol for Liver Microsomal Stability (Extraction Ratio)
Liver Microsomal Stability. Microsomal stability studies (Chrovian et al, “1H-Pyrrolo[3,2-b]pyridine GluN2B-Selective Negative Allosteric Modulators”. ACS Med Chem Lett. 2019 Jan. 10; 10(3):261-266) were conducted on a Biomek® FX Robotic Liquid Handling Workstation (Beckman Coulter, Brea, CA), which consists of a 96-channel pipette head, a 12-position workstation deck, and a plate incubator. Test compounds (1 μM) were spiked in a reaction mix consisting of 100 mM potassium phosphate buffer (pH 7.4), 3 mM MgCl2, and 0.5 mg/mL liver microsomes from mouse, rat, and human (BD Gentest). The reaction was brought to 37° C. and initiated by adding NADPH to a final concentration of 1 mM. After mixing on the plate deck, 50 μL aliquots were excised from the reaction plate at 0, 5, 10, 20, 40, and 60 min and quenched with four volumes of acetonitrile spiked with […] of the internal standard phenytoin. Quenched plates were centrifuged at 5700 rpm for 10 min at 4° C., and supernatant was diluted 1:3 in water before LC/MS/MS analysis. The compound half-lives were derived from plots of the ln of percent remaining compound over time to determine the intrinsic clearance. The predicted hepatic clearance was derived from the intrinsic clearance value using equations from the well-stirred model (Current Drug Metabolism, 2008, 9, 940-951), where no correction was made plasma protein binding and the blood to plasma concentration ratio was assumed to be one. The extraction ratio (ER) was calculated by dividing the predicted hepatic clearance by species blood flow (Q), where Q is 90, 55, and 21.7 mL/min/kg for mouse, rat and human, respectively

[2] = target: T1, human GluN1/GluN2B NMDA receptors (Homo sapiens, UniProt Q13224); test: Cell-based calcium flux (FLIPR) assay on cloned human NR1/NR2B ion channels expressed in mammalian cells; conditions: standard assay, glutamate ~EC40 plus 10 μM glycine, cells expressing human GluN1/GluN2B
T1 construct: expressed in transfected cells
T1 sequence (Q13224 27-1484, other chains not shown): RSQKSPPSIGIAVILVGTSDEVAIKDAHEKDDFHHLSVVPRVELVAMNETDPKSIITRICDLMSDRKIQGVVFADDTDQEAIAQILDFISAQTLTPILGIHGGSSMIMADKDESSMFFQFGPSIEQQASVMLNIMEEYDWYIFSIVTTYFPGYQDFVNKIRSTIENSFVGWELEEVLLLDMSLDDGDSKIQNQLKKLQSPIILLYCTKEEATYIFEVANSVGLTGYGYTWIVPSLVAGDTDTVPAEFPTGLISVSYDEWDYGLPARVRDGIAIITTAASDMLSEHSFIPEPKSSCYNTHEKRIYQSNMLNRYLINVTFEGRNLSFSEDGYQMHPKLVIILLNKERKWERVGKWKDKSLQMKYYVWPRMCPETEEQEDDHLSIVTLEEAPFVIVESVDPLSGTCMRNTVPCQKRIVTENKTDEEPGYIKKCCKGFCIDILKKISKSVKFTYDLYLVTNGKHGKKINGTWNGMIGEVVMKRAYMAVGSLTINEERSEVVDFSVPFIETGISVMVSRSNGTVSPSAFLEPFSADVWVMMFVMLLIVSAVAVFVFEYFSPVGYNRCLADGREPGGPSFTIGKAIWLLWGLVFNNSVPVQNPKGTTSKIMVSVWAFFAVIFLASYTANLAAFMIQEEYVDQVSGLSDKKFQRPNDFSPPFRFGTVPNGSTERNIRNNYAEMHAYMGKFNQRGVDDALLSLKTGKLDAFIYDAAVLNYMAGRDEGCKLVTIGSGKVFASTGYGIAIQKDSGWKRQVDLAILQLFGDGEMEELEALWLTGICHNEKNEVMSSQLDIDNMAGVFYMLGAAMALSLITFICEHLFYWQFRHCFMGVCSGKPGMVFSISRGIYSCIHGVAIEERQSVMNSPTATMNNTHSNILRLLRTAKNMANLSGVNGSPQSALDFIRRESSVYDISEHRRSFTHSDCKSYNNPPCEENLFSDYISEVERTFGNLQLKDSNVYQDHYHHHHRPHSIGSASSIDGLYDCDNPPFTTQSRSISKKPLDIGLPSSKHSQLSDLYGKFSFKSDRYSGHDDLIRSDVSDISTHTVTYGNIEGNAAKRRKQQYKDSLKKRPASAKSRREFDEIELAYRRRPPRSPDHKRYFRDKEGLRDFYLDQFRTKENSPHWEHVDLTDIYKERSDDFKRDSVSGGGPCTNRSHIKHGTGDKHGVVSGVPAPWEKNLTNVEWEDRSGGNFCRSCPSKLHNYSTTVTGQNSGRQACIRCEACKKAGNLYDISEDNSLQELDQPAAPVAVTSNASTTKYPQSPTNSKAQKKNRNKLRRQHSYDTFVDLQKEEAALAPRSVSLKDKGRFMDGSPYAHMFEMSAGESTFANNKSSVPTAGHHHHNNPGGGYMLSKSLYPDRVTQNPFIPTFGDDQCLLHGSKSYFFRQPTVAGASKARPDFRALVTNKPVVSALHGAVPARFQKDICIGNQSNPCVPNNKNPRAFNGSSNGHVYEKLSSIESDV
Method: Effects of Test Articles on Cloned Human NR1/NR2B Ion Channels Expressed in Mammalian Cells
NMDA receptors are ion channels that are highly permeable to Ca^2+ ions, rendering it possible to monitor NMDA receptor function using cell-based calcium flux assay. In this assay, co-agonists glutamate and glycine are added to cells heterologously expressing human GluN1/GluN2B NMDA receptors to initiate cellular Ca^2+ influx. The time course of the changes in intracellular calcium is measured using a fluorescent dye and a FLIPR (Fluorometric Imaging Plate Reader) device.
Twenty four hours before measurements, the expression of the NMDA receptors in the stable cell line is induced with Tet-On inducible system in the presence of a non-selective NMDA receptor blocker. […] After 1 h incubation at the room temperature, the dye is washed away with the assay buffer (137 mM NaCl (standard assay) or 150 mM (HTS assay), 4 mM KCl (standard assay) or 3 mM (HTS assay), 2 mM CaCl2), 0.01 mM EDTA, 10 mM HEPES and 5 mM D-glucose; pH 7.4) In the FLIPR TETRA reader, various concentrations of the test compounds are added to the cells for 5 min while fluorescence is monitored to detect potential agonist activity. […] The fluorescent signal in the presence of test compounds is quantified and normalized to the signal defined by the appropriate control wells.

Row | Extraction Ratio @ 1 μM [1] | Molecule | IC50 [2]
1 | 0.46 | O=C(Cn1ncc2ncc(-c3ccc(F)c(OC(F)F)c3)nc21)N1CC(F)C1 [Example 37, 2-[6-[3-(Difluoromethoxy)-4-fluoro-phenyl]pyrazolo[3,4-b]pyrazin-1-yl]-1-(3-fluoroazetidin-1-yl)ethanone] | 
2 |  | 2-[6-(4-Fluoro-3-methyl-phenyl)pyrazolo[3,4-b]pyrazin-1-yl]-N,N-dimethyl-acetamide [Example 7] | 117 nM
3 | 0.41 | O=C(Cn1nc(F)c2ncc(-c3ccc(F)c(C(F)F)c3)nc21)N1CCC1 [Example 25, 1-(Azetidin-1-yl)-2-[6-[3-(difluoromethyl)-4-fluoro-phenyl]-3-fluoro-pyrazolo[3,4-b]pyrazin-1-yl]ethanone] | 
4 | 0.45 | O=C(Cn1ncc2ncc(-c3ccc(F)c(OC(F)F)c3)nc21)N1CCC1 [Example 28, 1-(Azetidin-1-yl)-2-[6-[3-(difluoromethoxy)-4-fluoro-phenyl]pyrazolo[3,4-b]pyrazin-1-yl]ethanone] | 
5 | 0.54 | CN(C)C(=O)Cn1ncc2ncc(-c3ccc(Cl)c(C(F)F)c3)nc21 [Example 12, 2-[6-[4-Chloro-3-(difluoromethyl)phenyl]pyrazolo[3,4-b]pyrazin-1-yl]-N,N-dimethyl-acetamide] | 
6 | 0.41 | CN(C)C(=O)Cn1ncc2ncc(-c3ccc(F)c(C(F)F)c3)nc21 [Example 10, 2-[6-[3-(Difluoromethyl)-4-fluoro-phenyl]pyrazolo[3,4-b]pyrazin-1-yl]-N,N-dimethyl-acetamide] | 
